Reference: PubChem BioAssay AID248 (DTP/NCI, 2004)
Where “and” joins values, the source holds several entries; their conditions need not be identical. Identical values can stand only once. Inconclusive results and toxic doses are left out. Rule as the data show it: active = T/C of 150% or more; inactive = T/C below 125%.

Test system: L1210 leukemia ip in BDF1 mice, survival T/C
Assay: NCI In Vivo Anticancer Drug Screen. Data for tumor model L1210 Leukemia (intraperitoneal) in B6D2F1 (BDF1) mice
Conditions: endpoint: mean survival time, higher = longer survival
Procedure, shortened: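 Ratio derived from survival: compound-dosed mice over vehicle-dosed mice, all bearing a transplantable tumor.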

[1] = dose: 100.0 mg/kg/injection, schedule: Q04DX003 (ip), vehicle: saline with Tween-80
[2] = dose: 200.0 mg/kg/injection, schedule: Q04DX003 (ip), vehicle: saline with Tween-80
[3] = dose: 400.0 mg/kg/injection, schedule: Q04DX003 (ip), vehicle: saline with Tween-80
[4] = dose: 100.0 mg/kg/injection, schedule: Q01DX001 (ip), vehicle: saline
[5] = dose: 200.0 mg/kg/injection, schedule: Q01DX001 (ip), vehicle: saline
[6] = dose: 400.0 mg/kg/injection, schedule: Q01DX001 (ip), vehicle: saline
[7] = dose: 100.0 mg/kg/injection, schedule: Q01DX009 (ip), vehicle: Klucel (hydroxypropylcellulose) (HPC)
[8] = dose: 200.0 mg/kg/injection, schedule: Q01DX009 (ip), vehicle: Klucel (hydroxypropylcellulose) (HPC)
[9] = dose: 400.0 mg/kg/injection, schedule: Q01DX009 (ip), vehicle: Klucel (hydroxypropylcellulose) (HPC)
[10] = dose: 100.0 mg/kg/injection, schedule: Q04DX003 (ip), vehicle: saline
[11] = dose: 200.0 mg/kg/injection, schedule: Q04DX003 (ip), vehicle: saline
[12] = dose: 400.0 mg/kg/injection, schedule: Q04DX003 (ip), vehicle: saline
[13] = dose: 100.0 mg/kg/injection, schedule: Q01DX001 (ip), vehicle: saline with Tween-80
[14] = dose: 200.0 mg/kg/injection, schedule: Q01DX001 (ip), vehicle: saline with Tween-80
[15] = dose: 50.0 mg/kg/injection, schedule: Q01DX001 (ip), vehicle: saline
[16] = dose: 100.0 mg/kg/injection, schedule: Q01DX009 (ip), vehicle: saline
[17] = dose: 200.0 mg/kg/injection, schedule: Q01DX009 (ip), vehicle: saline
[18] = dose: 400.0 mg/kg/injection, schedule: Q01DX009 (ip), vehicle: saline
[19] = dose: 100.0 mg/kg/injection, schedule: Q04DX003 (ip), vehicle: Klucel (hydroxypropylcellulose) (HPC)
[20] = dose: 200.0 mg/kg/injection, schedule: Q04DX003 (ip), vehicle: Klucel (hydroxypropylcellulose) (HPC)
[21] = dose: 400.0 mg/kg/injection, schedule: Q04DX003 (ip), vehicle: Klucel (hydroxypropylcellulose) (HPC)
[22] = dose: 100.0 mg/kg/injection, schedule: Q04DX002 (ip), vehicle: Klucel (hydroxypropylcellulose) (HPC)
[23] = dose: 200.0 mg/kg/injection, schedule: Q04DX002 (ip), vehicle: Klucel (hydroxypropylcellulose) (HPC)
[24] = dose: 400.0 mg/kg/injection, schedule: Q04DX002 (ip), vehicle: Klucel (hydroxypropylcellulose) (HPC)
[25] = dose: 100.0 mg/kg/injection, schedule: Q01DX001 (ip), vehicle: carboxymethylcellulose (CMC)
[26] = dose: 200.0 mg/kg/injection, schedule: Q01DX001 (ip), vehicle: carboxymethylcellulose (CMC)
[27] = dose: 400.0 mg/kg/injection, schedule: Q01DX001 (ip), vehicle: carboxymethylcellulose (CMC)

Measured: T/C

C=CCC1(C(=C)C)C(=O)NC(=O)NC1=O
inactive: dose: 75.0 mg/kg/injection, schedule: Q01DX001 (ip), vehicle: carboxymethylcellulose (CMC) 97 % of control | dose: 150.0 mg/kg/injection, schedule: Q01DX001 (ip), vehicle: carboxymethylcellulose (CMC) 93 % of control | dose: 300.0 mg/kg/injection, schedule: Q01DX001 (ip), vehicle: carboxymethylcellulose (CMC) 111 % of control

CCCCCCCCCCCCCCCC(=O)OCCCCCCCCCCC
inactive: [1] 100 % of control | [2] 92 % of control | [3] 101 % of control

CC(=O)OCC1OC(SSC2OC(COC(C)=O)C(OC(C)=O)C(OC(C)=O)C2OC(C)=O)C(OC(C)=O)C(OC(C)=O)C1OC(C)=O (stereo not drawn)
inactive: [4] 93 % of control | [5] 95 % of control | [6] 89 % of control

O=[N+]([O-])c1ccc(OCc2ccc(Cl)c(S(=O)(=O)F)c2)c(Cl)c1
inactive: dose: 100.0 mg/kg/injection, schedule: Q01DX001 (ip), vehicle: gum acacia 102 % of control | dose: 200.0 mg/kg/injection, schedule: Q01DX001 (ip), vehicle: gum acacia 102 % of control | dose: 400.0 mg/kg/injection, schedule: Q01DX001 (ip), vehicle: gum acacia 98 % of control

CCOC(=O)Nc1cc(NC(c2ccc(Cl)cc2)c2ccc(Cl)cc2)c2[nH]cnc2n1
inactive: dose: 25.0 mg/kg/injection, schedule: Q01DX009 (ip), vehicle: other 96 % of control | dose: 50.0 mg/kg/injection, schedule: Q01DX009 (ip), vehicle: other 111 % of control

COc1cc([N+](=O)[O-])ccc1NC(=O)N(Cc1ccccc1)c1ccccc1
inactive: [7] 98 % of control | [8] 93 % of control | [9] 91 % of control

CCC(CO)NC1CCCC1 (stereo not drawn)
inactive: dose: 75.0 mg/kg/injection, schedule: Q01DX001 (ip), vehicle: acid diluted with saline 100 % of control | dose: 150.0 mg/kg/injection, schedule: Q01DX001 (ip), vehicle: acid diluted with saline 100 % of control | dose: 300.0 mg/kg/injection, schedule: Q01DX001 (ip), vehicle: acid diluted with saline 100 % of control

CN(C)C(=O)C1C2CCC(C2)C1C(=O)N(C)C (stereo not drawn)
inactive: [10] 103 % of control | [11] 96 % of control | [12] 100 % of control

CC(C)(C)C1=CC(=O)C(Cl)(C(C)(C)C)C(Cl)C1=O (stereo not drawn)
inactive: [13] 97 % of control | [14] 90 % of control

CC(C)(CBr)CC(=O)NC1CCCCC1
inactive: [15] 98 % of control | [4] 98 % of control | [5] 96 % of control | [6] 104 % of control

C[N+](C)(C)CCS(=O)(=O)[O-]
inactive: [16] 90 % of control | [17] 95 % of control | [18] 95 % of control

Cc1ccc([N+](=O)[O-])cc1NC(=O)Nc1ccccc1O
inactive: [7] 92 % of control | [9] 87 % of control

NC(CSCc1cc(=O)[nH]c(=O)[nH]1)C(=O)O (stereo not drawn)
inactive: [10] 97 % of control | [11] 97 % of control | [12] 95 % of control

CCCCCCCCC1CCC(N)CC1 (stereo not drawn)
inactive: [7] 95 % of control | [19] 95 % of control | [8] 93 % of control | [20] 101 % of control | [21] 98 % of control

COc1ccc(OC(=O)Nc2ccccc2C)cc1
inactive: dose: 50.0 mg/kg/injection, schedule: Q04DX002 (ip), vehicle: Klucel (hydroxypropylcellulose) (HPC) 104 % of control | [22] 100 % of control and 101 % of control | [23] 101 % of control | [24] 104 % of control and 111 % of control

CC1CCN(C(=O)C(c2ccccc2)c2ccccc2)CC1
inactive: [22] 101 % of control | [23] 86 % of control | [24] 101 % of control

O=C1c2ccccc2C(=O)c2c(O)c3c(c(O)c21)CC=CC3
inactive: dose: 0.25 mg/kg/injection, schedule: Q04DX003 (ip), vehicle: saline with Tween-80 94 % of control | dose: 0.5 mg/kg/injection, schedule: Q04DX003 (ip), vehicle: saline with Tween-80 104 % of control | dose: 1.0 mg/kg/injection, schedule: Q04DX003 (ip), vehicle: saline with Tween-80 100 % of control | dose: 2.0 mg/kg/injection, schedule: Q04DX003 (ip), vehicle: saline with Tween-80 104 % of control | dose: 4.0 mg/kg/injection, schedule: Q04DX003 (ip), vehicle: saline with Tween-80 102 % of control | dose: 6.0 mg/kg/injection, schedule: Q04DX003 (ip), vehicle: saline with Tween-80 102 % of control | dose: 8.0 mg/kg/injection, schedule: Q04DX003 (ip), vehicle: saline with Tween-80 93 % of control | dose: 12.0 mg/kg/injection, schedule: Q04DX003 (ip), vehicle: saline with Tween-80 103 % of control | dose: 16.0 mg/kg/injection, schedule: Q04DX003 (ip), vehicle: saline with Tween-80 93 % of control | dose: 24.0 mg/kg/injection, schedule: Q04DX003 (ip), vehicle: saline with Tween-80 102 % of control | dose: 32.0 mg/kg/injection, schedule: Q04DX003 (ip), vehicle: saline with Tween-80 100 % of control | dose: 48.0 mg/kg/injection, schedule: Q04DX003 (ip), vehicle: saline with Tween-80 103 % of control | dose: 64.0 mg/kg/injection, schedule: Q04DX003 (ip), vehicle: saline with Tween-80 96 % of control | dose: 128.0 mg/kg/injection, schedule: Q04DX003 (ip), vehicle: saline with Tween-80 105 % of control

COC1OC2COC(c3ccccc3)OC2C(O)C1NC(=O)c1ccccc1 (stereo not drawn)
inactive: [19] 110 % of control | [20] 94 % of control | [21] 111 % of control

O=S(=O)(CCCCCl)Cc1ccccc1
inactive: [4] 101 % of control | [16] 110 % of control | [10] 104 % of control | [5] 96 % of control | [17] 94 % of control | [11] 104 % of control | [6] 93 % of control | [18] 103 % of control | [12] 93 % of control

COc1ccc(NC(=O)CSc2cc(Cl)ccc2Cl)cc1
inactive: [25] 102 % of control | [26] 96 % of control | [27] 90 % of control

CSc1ccccc1C(=O)O
inactive: dose: 50.0 mg/kg/injection, schedule: Q01DX001 (ip), vehicle: carboxymethylcellulose (CMC) 100 % of control | [25] 100 % of control | [7] 97 % of control | [19] 103 % of control | [26] 94 % of control | [8] 95 % of control | [20] 94 % of control | [27] 96 % of control | [9] 100 % of control | [21] 110 % of control

Cc1cc(Cl)cc(CN(C)C)c1O.[Cu+2]
inactive: [15] 97 % of control | [4] 97 % of control | [5] 113 % of control

COC(=O)CCC(NC(=O)c1ccc(NCc2cnc3nc(N)n(C)c(=O)c3n2)cc1)C(=O)OC (stereo not drawn)
inactive: [13] 106 % of control | [14] 104 % of control | dose: 400.0 mg/kg/injection, schedule: Q01DX001 (ip), vehicle: saline with Tween-80 101 % of control

O=C(c1ccccc1)c1nc2ccccc2nc1-c1ccccc1
inactive: [19] 92 % of control | [20] 92 % of control | [21] 89 % of control

O=S1(=O)c2ccc(cc2)N=CC=Nc2ccc1cc2
inactive: [1] 92 % of control | [2] 90 % of control | [3] 89 % of control

OC(C=S)CS (stereo not drawn)
inactive: dose: 100.0 mg/kg/injection, schedule: Q04DX002 (ip), vehicle: saline with Tween-80 95 % of control | dose: 200.0 mg/kg/injection, schedule: Q04DX002 (ip), vehicle: saline with Tween-80 92 % of control | dose: 400.0 mg/kg/injection, schedule: Q04DX002 (ip), vehicle: saline with Tween-80 95 % of control
